Laboratory results published in PubChem BioAssay (NCI).
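In this assay, cells in 96-well plates receive the compound at five concentrations for 48 hours. Endpoints are linearly interpolated between the surrounding concentrations. GI50 = concentration required for 50% inhibition of growth. Definition used: TGI = concentration required for complete inhibition of growth.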

Tests used:
Experiment in all cases: inhibition of tumour cell growth, NCI panel, 48 h
786-0 renal = test system: 786-0 renal
A498 renal = test system: A498 renal
ACHN renal = test system: ACHN renal
BT-549 breast = test system: BT-549 breast
CAKI-1 renal = test system: CAKI-1 renal
CCRF-CEM leukemia = test system: CCRF-CEM leukemia
COLO 205 colon = test system: COLO 205 colon
DU-145 prostate = test system: DU-145 prostate
EKVX NSCLC = test system: EKVX NSCLC
HCC-2998 colon = test system: HCC-2998 colon
HCT-116 colon = test system: HCT-116 colon
HCT-15 colon = test system: HCT-15 colon
HL-60(TB) leukemia = test system: HL-60(TB) leukemia
HOP-62 NSCLC = test system: HOP-62 NSCLC
HOP-92 NSCLC = test system: HOP-92 NSCLC
HS 578T breast = test system: HS 578T breast
HT29 colon = test system: HT29 colon
K-562 leukemia = test system: K-562 leukemia
KM12 colon = test system: KM12 colon
LOX IMVI melanoma = test system: LOX IMVI melanoma
M14 melanoma = test system: M14 melanoma
MALME-3M melanoma = test system: MALME-3M melanoma
MCF7 breast = test system: MCF7 breast
MDA-MB-231 breast = test system: MDA-MB-231 breast
MDA-MB-435 = test system: MDA-MB-435
MOLT-4 leukemia = test system: MOLT-4 leukemia
NCI-H226 lung = test system: NCI-H226 lung
NCI-H23 lung = test system: NCI-H23 lung
NCI-H460 lung = test system: NCI-H460 lung
NCI/ADR-RES ovarian = test system: NCI/ADR-RES ovarian
OVCAR-3 ovarian = test system: OVCAR-3 ovarian
OVCAR-5 ovarian = test system: OVCAR-5 ovarian
PC-3 prostate = test system: PC-3 prostate
RPMI-8226 leukemia = test system: RPMI-8226 leukemia
SF-268 CNS = test system: SF-268 CNS
SF-295 CNS = test system: SF-295 CNS
SF-539 CNS = test system: SF-539 CNS
SK-MEL-2 melanoma = test system: SK-MEL-2 melanoma
SK-MEL-28 melanoma = test system: SK-MEL-28 melanoma
SK-MEL-5 melanoma = test system: SK-MEL-5 melanoma
SK-OV-3 ovarian = test system: SK-OV-3 ovarian
SN12C renal = test system: SN12C renal
SNB-19 CNS = test system: SNB-19 CNS
SW-620 colon = test system: SW-620 colon
TK-10 renal = test system: TK-10 renal
U251 CNS = test system: U251 CNS
UACC-257 melanoma = test system: UACC-257 melanoma
UACC-62 melanoma = test system: UACC-62 melanoma
UO-31 renal = test system: UO-31 renal

SMILES: CN(C)CCCN1c2nc3ccccc3cc2Sc2cc3ccccc3nc21
- GI50 (786-0 renal): 1240 nM
- TGI (786-0 renal): 2500 nM
- GI50 (A498 renal): 1570 nM
- TGI (A498 renal): 2960 nM
- GI50 (ACHN renal): 1550 nM
- TGI (ACHN renal): 2940 nM
- GI50 (BT-549 breast): 1420 nM
- TGI (BT-549 breast): 2840 nM
- GI50 (CAKI-1 renal): 1460 nM
- TGI (CAKI-1 renal): 3010 nM
- GI50 (CCRF-CEM leukemia): 1120 nM
- TGI (CCRF-CEM leukemia): 2550 nM
- GI50 (COLO 205 colon): 1240 nM
- TGI (COLO 205 colon): 2820 nM
- GI50 (DU-145 prostate): 1650 nM
- TGI (DU-145 prostate): 3010 nM
- GI50 (EKVX NSCLC): 1500 nM
- TGI (EKVX NSCLC): 3230 nM
- GI50 (HCC-2998 colon): 1650 nM
- TGI (HCC-2998 colon): 3260 nM
- GI50 (HCT-116 colon): 1100 nM
- TGI (HCT-116 colon): 2310 nM
- GI50 (HCT-15 colon): 1330 nM
- TGI (HCT-15 colon): 2870 nM
- GI50 (HL-60(TB) leukemia): 1340 nM
- TGI (HL-60(TB) leukemia): 2790 nM
- GI50 (HOP-62 NSCLC): 1290 nM
- TGI (HOP-62 NSCLC): 2580 nM
- GI50 (HOP-92 NSCLC): 332 nM
- TGI (HOP-92 NSCLC): 1420 nM
- GI50 (HS 578T breast): 1370 nM
- TGI (HS 578T breast): 2910 nM
- GI50 (HT29 colon): 1180 nM
- TGI (HT29 colon): 5100 nM
- GI50 (K-562 leukemia): 639 nM
- TGI (K-562 leukemia): > 100000 nM
- GI50 (KM12 colon): 1510 nM
- TGI (KM12 colon): 2880 nM
- GI50 (LOX IMVI melanoma): 1550 nM
- TGI (LOX IMVI melanoma): 3160 nM
- GI50 (M14 melanoma): 1690 nM
- TGI (M14 melanoma): 3230 nM
- GI50 (MALME-3M melanoma): 1330 nM
- TGI (MALME-3M melanoma): 2890 nM
- GI50 (MCF7 breast): 859 nM
- TGI (MCF7 breast): 2180 nM
- GI50 (MDA-MB-231 breast): 1410 nM
- TGI (MDA-MB-231 breast): 2750 nM
- GI50 (MDA-MB-435): 1510 nM
- TGI (MDA-MB-435): 2960 nM
- GI50 (MOLT-4 leukemia): 892 nM
- TGI (MOLT-4 leukemia): 2310 nM
- GI50 (NCI-H226 lung): 1460 nM
- TGI (NCI-H226 lung): 4030 nM
- GI50 (NCI-H23 lung): 1400 nM
- TGI (NCI-H23 lung): 2860 nM
- GI50 (NCI-H460 lung): 1600 nM
- TGI (NCI-H460 lung): 3130 nM
- GI50 (NCI/ADR-RES ovarian): 1880 nM
- TGI (NCI/ADR-RES ovarian): 5390 nM
- GI50 (OVCAR-3 ovarian): 1530 nM
- TGI (OVCAR-3 ovarian): 2920 nM
- GI50 (OVCAR-5 ovarian): 1540 nM
- TGI (OVCAR-5 ovarian): 2970 nM
- GI50 (PC-3 prostate): 1360 nM
- TGI (PC-3 prostate): 2740 nM
- GI50 (RPMI-8226 leukemia): 450 nM
- TGI (RPMI-8226 leukemia): 2080 nM
- GI50 (SF-268 CNS): 1590 nM
- TGI (SF-268 CNS): 3000 nM
- GI50 (SF-295 CNS): 1390 nM
- TGI (SF-295 CNS): 2810 nM
- GI50 (SF-539 CNS): 1610 nM
- TGI (SF-539 CNS): 2970 nM
- GI50 (SK-MEL-2 melanoma): 1300 nM
- TGI (SK-MEL-2 melanoma): 2840 nM
- GI50 (SK-MEL-28 melanoma): 1040 nM
- TGI (SK-MEL-28 melanoma): 2210 nM
- GI50 (SK-MEL-5 melanoma): 1590 nM
- TGI (SK-MEL-5 melanoma): 3040 nM
- GI50 (SK-OV-3 ovarian): 1590 nM
- TGI (SK-OV-3 ovarian): 3010 nM
- GI50 (SN12C renal): 1280 nM
- TGI (SN12C renal): 2550 nM
- GI50 (SNB-19 CNS): 1690 nM
- TGI (SNB-19 CNS): 3130 nM
- GI50 (SW-620 colon): 1480 nM
- TGI (SW-620 colon): 2880 nM
- GI50 (TK-10 renal): 1650 nM
- TGI (TK-10 renal): 3100 nM
- GI50 (U251 CNS): 1600 nM
- TGI (U251 CNS): 3080 nM
- GI50 (UACC-257 melanoma): 1760 nM
- TGI (UACC-257 melanoma): 3530 nM
- GI50 (UACC-62 melanoma): 1460 nM
- TGI (UACC-62 melanoma): 2800 nM
- GI50 (UO-31 renal): 1270 nM
- TGI (UO-31 renal): 2710 nM
